Test results published in patent US20220241249A1, “PHARMACEUTICAL COMPOSITION AND KIT CONTAINING NOVEL PENAM DERIVATIVE OR SALT THEREOF AND ONE OR MORE COMPOUNDS SELECTED FROM beta-LACTAMASE INHIBITORY COMPOUND AND ANTIBACTERIAL COMPOUND OR SALTS THEREOF” (priority 2019, published 2022).
In brackets after ≈: the same amount, converted by molar mass.

What was measured:
Assay in all cases: Antibacterial activity evaluation test, MIC by broth microdilution (CLSI)
Format in all cases: cell-based
[1] = system: AmpC-derepressed Pseudomonas aeruginosa mutant strain (S-3028); conditions: Pseudomonas aeruginosa
Protocol: (§1) The minimum inhibitory concentration (MIC) was measured according to the Clinical and Laboratory Standards Institute (CLSI) standard method by using the following broth microdilution method.
(§2) As bacteria, a Pseudomonas aeruginosa strain ATCC27853, an AmpC-derepressed Pseudomonas aeruginosa mutant strain (S-3028), an IMP-1-containing Pseudomonas aeruginosa strain (S-2838), a VIM-2-containing Pseudomonas aeruginosa strain (S-3779), a GES-19 and GES-20-containing Pseudomonas aeruginosa strain (S-3759), a CTX-M-15-containing Escherichia coli strain (TK-1747), a KPC-2-containing Klebsiella pneumoniae strain (Y-995), an OXA-48-containing Klebsiella pneumoniae strain (Y-1062), and an NDM-1-containing Klebsiella pneumoniae strain (Y-1007) were used. The test bacterial cells that had been cultured overnight on a Mueller Hinton agar medium were scraped off, suspended at a density equivalent to 0.5 McFarland standard, and diluted 10-fold, thereby obtaining an inoculum. A cation-adjusted Mueller Hinton medium containing a test compound was inoculated with 0.005 mL of the inoculum, and the cells were cultured at 35° C. for 16 to 20 hours. The minimum drug concentration at which the growth of bacteria was not visually observed was defined as MIC (μg/mL).
(§3) An antibacterial activity evaluation test was performed in the same manner as in Test Example 1.

[2] = system: CTX-M-15-containing Escherichia coli strain (TK-1747); conditions: Escherichia coli
Protocol: as §1, §2, §3

[3] = system: GES-19 and GES-20-containing Pseudomonas aeruginosa strain (S-3759); conditions: Pseudomonas aeruginosa
Protocol: as §1, §2, §3

[4] = system: IMP-1-containing Pseudomonas aeruginosa strain (S-2838); conditions: Pseudomonas aeruginosa
Protocol: as §1, §2, §3

[5] = system: KPC-2-containing Klebsiella pneumoniae strain (Y-995); conditions: Klebsiella pneumoniae
Protocol: as §1, §2, §3

[6] = system: NDM-1-containing Klebsiella pneumoniae strain (Y-1007); conditions: Klebsiella pneumoniae
Protocol: as §1, §2, §3

[7] = system: OXA-48-containing Klebsiella pneumoniae strain (Y-1062); conditions: Klebsiella pneumoniae
Protocol: as §1, §2, §3

[8] = system: Pseudomonas aeruginosa strain ATCC27853; conditions: Pseudomonas aeruginosa, ATCC27853
Protocol: as §1, §2, §3

[9] = system: VIM-2-containing Pseudomonas aeruginosa strain (S-3779); conditions: Pseudomonas aeruginosa
Protocol: as §1, §2, §3

Row | SMILES | MIC [1] [µg/mL] | MIC [2] [µg/mL] | MIC [3] [µg/mL] | MIC [4] [µg/mL] | MIC [5] [µg/mL] | MIC [6] [µg/mL] | MIC [7] [µg/mL] | MIC [8] [µg/mL] | MIC [9] [µg/mL]
1 | CC(C)(O/N=C(\C(=O)N[C@@H]1C(=O)N2C[C@@](C(=O)O)(N3CCN(NC(=O)c4ccc(O)c(O)c4Cl)C3=O)S[C@H]12)c1csc(N)n1)C(=O)O [Example 2, (3R,5R,6R)-6-((Z)-2-(2-aminothiazol-4-yl)-2-(((2-carboxypropan-2-yl)oxy)imino)acetamido)-3-(3-(2-chloro-3,4-dihydroxybenzamido)-2-oxoimidazolidin-1-yl)-7-oxo-4-thia-1-azabicyclo[3.2.0]heptane-3-carboxylic acid] | 1 (≈ 1.4 µM) | 0.25 (≈ 0.351 µM) | 4 (≈ 5.61 µM) | 0.5 (≈ 0.701 µM) | 0.12 (≈ 0.168 µM) | < 0.06 | 2 (≈ 2.8 µM) | 1 (≈ 1.4 µM) | 0.25 (≈ 0.351 µM)
2 | Nc1nc(/C(=N/OC2(C(=O)O)CC2)C(=O)N[C@@H]2C(=O)N3C[C@@](C(=O)O)(N4CCN(NC(=O)c5ccc(O)c(O)c5Cl)C4=O)S[C@H]23)cs1 [Example 8, (3R,5R,6R)-6-((Z)-2-(2-aminothiazol-4-yl)-2-((1-carboxycyclopropoxy)imino)acetamido)-3-(3-(2-chloro-3,4-dihydroxybenzamido)-2-oxoimidazolidin-1-yl)-7-oxo-4-thia-1-azabicyclo[3.2.0]heptane-3-carboxylic acid] | 0.5 (≈ 0.703 µM) | 0.12 (≈ 0.169 µM) | 2 (≈ 2.81 µM) | 4 (≈ 5.63 µM) | 0.06 (≈ 0.0844 µM) | < 0.06 | 16 (≈ 22.5 µM) | 0.25 (≈ 0.352 µM) | 1 (≈ 1.41 µM)
3 | CC(C)(O/N=C(\C(=O)N[C@@H]1C(=O)N2C[C@@](C(=O)O)(N3CCN(NC(=O)C(=O)c4ccc(O)c(O)c4Cl)C3=O)S[C@H]12)c1csc(N)n1)C(=O)O [Example 20, (3R,5R,6R)-6-((Z)-2-(2-aminothiazol-4-yl)-2-(((2-carboxypropan-2-yl)oxy)imino)acetamido)-3-(3-(2-(2-chloro-3,4-dihydroxyphenyl)-2-oxoacetamido)-2-oxoimidazolidin-1-yl)-7-oxo-4-thia-1-azabicyclo[3.2.0]heptane-3-carboxylic acid] | 0.25 (≈ 0.337 µM) | < 0.06 | 0.5 (≈ 0.675 µM) | 0.12 (≈ 0.162 µM) | 0.12 (≈ 0.162 µM) | < 0.06 | 0.5 (≈ 0.675 µM) | 0.5 (≈ 0.675 µM) | 0.25 (≈ 0.337 µM)
4 | Nc1nc(/C(=N/OC2(C(=O)O)CC2)C(=O)N[C@@H]2C(=O)N3C[C@@](C(=O)O)(N4CCN(NC(=O)C(=O)c5ccc(O)c(O)c5Cl)C4=O)S[C@H]23)cs1 [Example 21, (3R,5R,6R)-6-((Z)-2-(2-aminothiazol-4-yl)-2-((1-carboxycyclopropoxy)imino)acetamido)-3-(3-(2-(2-chloro-3,4-dihydroxyphenyl)-2-oxoacetamido)-2-oxoimidazolidin-1-yl)-7-oxo-4-thia-1-azabicyclo[3.2.0]heptane-3-carboxylic acid] | 4 (≈ 5.41 µM) | 0.12 (≈ 0.162 µM) | 1 (≈ 1.35 µM) | 2 (≈ 2.71 µM) | < 0.06 | < 0.06 | 2 (≈ 2.71 µM) | 0.25 (≈ 0.338 µM) | 0.5 (≈ 0.676 µM)
5 | CC(C)(O/N=C(\C(=O)N[C@@H]1C(=O)N2C[C@@](C(=O)O)(N3CCN(NC(=O)C(=O)c4ccc(O)c(O)c4Cl)C3=O)S[C@H]12)c1nc(N)sc1Cl)C(=O)O [Example 22, (3R,5R,6R)-6-((Z)-2-(2-amino-5-chlorothiazol-4-yl)-2-(((2-carboxypropan-2-yl)oxy)imino)acetamido)-3-(3-(2-(2-chloro-3,4-dihydroxyphenyl)-2-oxoacetamido)-2-oxoimidazolidin-1-yl)-7-oxo-4-thia-1-azabicyclo[3.2.0]heptane-3-carboxylic acid] | 0.5 (≈ 0.645 µM) | < 0.06 | 0.5 (≈ 0.645 µM) | 0.5 (≈ 0.645 µM) | 0.06 (≈ 0.0774 µM) | < 0.06 | 0.06 (≈ 0.0774 µM) | 0.5 (≈ 0.645 µM) | 0.25 (≈ 0.322 µM)
6 | CC(C)(O/N=C(\C(=O)N[C@@H]1C(=O)N2C[C@@](C(=O)O)(n3ncn(NC(=O)C(=O)c4ccc(O)c(O)c4Cl)c3=O)S[C@H]12)c1csc(N)n1)C(=O)O [Example 26, (3R,5R,6R)-6-((Z)-2-(2-aminothiazol-4-yl)-2-(((2-carboxypropan-2-yl)oxy)imino)acetamido)-3-(4-(2-(2-chloro-3,4-dihydroxyphenyl)-2-oxoacetamido)-5-oxo-4,5-dihydro-1H-1,2,4-triazol-1-yl)-7-oxo-4-thia-1-azabicyclo[3.2.0]heptane-3-carboxylic acid] | 0.12 (≈ 0.162 µM) | 0.12 (≈ 0.162 µM) | 0.25 (≈ 0.338 µM) | 0.25 (≈ 0.338 µM) | 0.12 (≈ 0.162 µM) | < 0.06 | 0.5 (≈ 0.676 µM) | 1 (≈ 1.35 µM) | 0.25 (≈ 0.338 µM)
7 | CC(C)(O/N=C(\C(=O)N[C@@H]1C(=O)N2C[C@@](C(=O)O)(N3CCN(NC(=O)CCNC(=O)c4ccc(O)c(O)c4Cl)C3=O)S[C@H]12)c1csc(N)n1)C(=O)O [Example 28, (3R,5R,6R)-6-((Z)-2-(2-aminothiazol-4-yl)-2-(((2-carboxypropan-2-yl)oxy)imino)acetamido)-3-(3-(3-(2-chloro-3,4-dihydroxybenzamido)propanamido)-2-oxoimidazolidin-1-yl)-7-oxo-4-thia-1-azabicyclo[3.2.0]heptane-3-carboxylic acid] | 0.25 (≈ 0.319 µM) | 2 (≈ 2.55 µM) | 2 (≈ 2.55 µM) | 0.25 (≈ 0.319 µM) | 1 (≈ 1.28 µM) | < 0.06 | 0.25 (≈ 0.319 µM) | 0.5 (≈ 0.638 µM) | 0.5 (≈ 0.638 µM)
8 | CC(C)(O/N=C(\C(=O)N[C@@H]1C(=O)N2C[C@@](C(=O)O)(N3CCN(NC(=O)CNC(=O)C(=O)c4ccc(O)c(O)c4Cl)C3=O)S[C@H]12)c1csc(N)n1)C(=O)O [Example 29] | < 0.06 | 2 (≈ 2.51 µM) | 0.5 (≈ 0.626 µM) | 1 (≈ 1.25 µM) | 0.5 (≈ 0.626 µM) | < 0.06 | 1 (≈ 1.25 µM) | 0.25 (≈ 0.313 µM) | 0.5 (≈ 0.626 µM)
9 | CC(C)(O/N=C(\C(=O)N[C@@H]1C(=O)N2C[C@@](C(=O)O)(N3CCN(NC(=O)CCNC(=O)C(=O)c4ccc(O)c(O)c4Cl)C3=O)S[C@H]12)c1csc(N)n1)C(=O)O [Example 30, (3R,5R,6R)-6-((Z)-2-(2-aminothiazol-4-yl)-2-(((2-carboxypropan-2-yl)oxy)imino)acetamido)-3-(3-(3-(2-(2-chloro-3,4-dihydroxyphenyl)-2-oxoacetamido)propanamido)-2-oxoimidazolidin-1-yl)-7-oxo-4-thia-1-azabicyclo[3.2.0]heptane-3-carboxylic acid] | < 0.06 | 0.25 (≈ 0.308 µM) | 0.5 (≈ 0.616 µM) | 0.5 (≈ 0.616 µM) | 0.25 (≈ 0.308 µM) | < 0.06 | 0.5 (≈ 0.616 µM) | 0.25 (≈ 0.308 µM) | 0.5 (≈ 0.616 µM)
10 | C[C@H]1CN(/N=C/CNC(=O)c2ccc(O)c(O)c2Cl)C(=O)N1[C@]1(C(=O)O)CN2C(=O)C(NC(=O)/C(=N\OC(C)(C)C(=O)O)c3csc(N)n3)[C@H]2S1 (stereo partly drawn) [Example 45] | 2 (≈ 2.6 µM) | 0.12 (≈ 0.156 µM) | 2 (≈ 2.6 µM) | 2 (≈ 2.6 µM) | 0.25 (≈ 0.325 µM) | < 0.06 | 1 (≈ 1.3 µM) | 1 (≈ 1.3 µM) | 1 (≈ 1.3 µM)
11 | C[C@H]1CN(/N=C/CNC(=O)C(=O)c2ccc(O)c(O)c2Cl)C(=O)N1[C@]1(C(=O)O)CN2C(=O)C(NC(=O)/C(=N\OC(C)(C)C(=O)O)c3csc(N)n3)[C@H]2S1 (stereo partly drawn) [Example 47] | 0.12 (≈ 0.151 µM) | < 0.06 | 1 (≈ 1.26 µM) | 4 (≈ 5.02 µM) | 0.5 (≈ 0.628 µM) | < 0.06 | 0.25 (≈ 0.314 µM) | 0.5 (≈ 0.628 µM) | 1 (≈ 1.26 µM)
12 | CC(C)(O/N=C(\C(=O)N[C@@H]1C(=O)N2C[C@@](C(=O)O)(N3CCN(/N=C/C=N/NC(=O)NCCNC(=O)c4ccc(O)c(O)c4Cl)C3=O)S[C@H]12)c1csc(N)n1)C(=O)O [Example 53, (3R,5R,6R)-6-((Z)-2-(2-aminothiazol-4-yl)-2-(((2-carboxypropan-2-yl)oxy)imino)acetamido)-3-(3-(((1E,2E)-2-(2-((2-(2-chloro-3,4-dihydroxybenzamido)ethyl)carbamoyl)hydrazono)ethylidene)amino)-2-oxoimidazolidin-1-yl)-7-oxo-4-thia-1-azabicyclo[3.2.0]heptane-3-carboxylic acid] | 1 (≈ 1.17 µM) | 2 (≈ 2.34 µM) | 2 (≈ 2.34 µM) | 4 (≈ 4.69 µM) | 2 (≈ 2.34 µM) | 0.12 (≈ 0.141 µM) | 0.5 (≈ 0.586 µM) | 0.5 (≈ 0.586 µM) | 0.5 (≈ 0.586 µM)
